Data on 64 molecules can be found in ChEMBL document CHEMBL1136079, “Molecular design, synthesis, and structure-Activity relationships leading to the potent and selective p56(lck) inhibitor BMS-243117” (Bioorg Med Chem Lett, 2003).

pIC50: −log10 of the molar value. Some results are limits rather than exact numbers.

The pIC50 is the negative decadic logarithm of the IC50, by convention in mol/L. A low value points to a high IC50.

System in the first experiment: not listed separately
The experiment is described as follows: Inhibition of anti-CD3, anti-CD28 induced PBL T-cell proliferation. The note with it: Homo sapiens.
Molecule `Cc1cccc(Cl)c1NC(=O)c1ccc2nc(NC(=O)NCCC3CCCN3C)sc2c1` (configuration not stated) had a negative-log IC50 (pIC50) of 6.02.

`Cc1cccc(Cl)c1NC(=O)c1ccc2nc(NC(=O)NC(C)(C)C)sc2c1` had a pIC50 of 5.96.

For the molecule `Cc1cccc(Cl)c1NC(=O)c1ccc2nc(NC(=O)NC3CC(C)(C)NC(C)(C)C3)sc2c1`, the pIC50 is 5.55. `Cc1cccc(Cl)c1NC(=O)c1ccc2nc(NC(=O)C3CC3C)sc2c1` (configuration not stated) gave a pIC50 of 5.80. For the molecule `Cc1cccc(Cl)c1NC(=O)c1ccc2nc(NC(=O)C3CC3CN(C)C)sc2c1` (trans isomer), the pIC50 was 5.45. In turn, `Cc1cccc(Cl)c1NC(=O)c1ccc2nc(NC(=O)C3CC3CO)sc2c1` (trans isomer) showed a pIC50 of 5.84.

In a further experiment the target is Tyrosine-protein kinase Lck (Homo sapiens, UniProt P06239). The experiment is described as follows: In vitro inhibition of phosphorylation of an exogenous substrate by human p56 Lck tyrosine kinase expressed as a His-tagged protein in insect cells using a baculovirus expression system.
Sequence of Tyrosine-protein kinase Lck (P06239 whole entry): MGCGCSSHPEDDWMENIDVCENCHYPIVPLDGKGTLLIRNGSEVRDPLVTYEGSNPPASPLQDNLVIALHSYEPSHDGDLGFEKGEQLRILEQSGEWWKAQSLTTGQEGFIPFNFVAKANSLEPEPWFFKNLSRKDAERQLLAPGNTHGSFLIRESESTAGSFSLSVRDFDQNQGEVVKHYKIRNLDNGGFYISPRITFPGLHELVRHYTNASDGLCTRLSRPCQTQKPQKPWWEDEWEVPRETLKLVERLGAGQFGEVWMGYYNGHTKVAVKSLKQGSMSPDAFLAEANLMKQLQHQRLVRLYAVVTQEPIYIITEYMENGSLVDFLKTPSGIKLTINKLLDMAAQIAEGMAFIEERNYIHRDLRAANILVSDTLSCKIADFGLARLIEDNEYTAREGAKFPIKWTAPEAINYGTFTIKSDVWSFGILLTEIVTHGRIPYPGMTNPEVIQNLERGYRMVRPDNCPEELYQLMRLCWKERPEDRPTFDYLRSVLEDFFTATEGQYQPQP
Details: not given
The molecule `Cc1cc(C)c(NC(=O)c2ccc3nc(NC(=O)NC(C)(C)C)sc3c2)c(C)c1` showed a pIC50 of 7.15. Regarding `Cc1cc(C)c(NC(=O)c2ccc3nc(NC(=O)OC(C)(C)C)sc3c2)c(C)c1Br`, the negative logarithm of the IC50 (pIC50) was under 4.90.

For the molecule `Cc1cc(CO)cc(C)c1NC(=O)c1ccc2nc(NC(=O)OC(C)(C)C)sc2c1`, the pIC50 is 6.51. Take `Cc1cccc(Cl)c1NC(=O)c1ccc2nc(NC(=O)NC3CC3)sc2c1`: the pIC50 was 7.05. Turning to `Cc1cccc(Cl)c1NC(=O)c1ccc2nc(NC(=O)NCc3ccco3)sc2c1`, the pIC50 is 7.41.

Molecule `Cc1cccc(C)c1NC(=O)c1ccc2nc(NC(=O)OC(C)(C)C)sc2c1` gave a pIC50 of 7.05. On the same count and under the same terms, the figure for `Cc1cc(C)c(NC(=O)c2ccc3nc(NC(=O)NC4CC4)sc3c2)c(C)c1` is 6.52; for `Cc1cc(C)c(NC(=O)c2ccc3nc(NC(=O)C(C)C)sc3c2)c(C)c1` it is 6.15; for `Cc1cc(C)c(NC(=O)c2ccc3nc(N)oc3c2)c(C)c1` it is 4.64. `Cc1cc(C)c(NC(=O)c2cccc3sc(NC(=O)OC(C)(C)C)nc23)c(C)c1` showed a pIC50 of under 4.90. On to `Cc1cc(C)c(NC(=O)c2ccc3nc(NC(=O)OC(C)(C)C)sc3c2)c(C)c1`, for which the pIC50 was 6.54. For `Cc1cccc(C)c1NC(=O)c1ccc2nc(NC(=O)C(C)C)sc2c1`, the pIC50 is 5.74. `Cc1cccc(C)c1NC(=O)c1ccc2nc(NC(=O)C3CC3C)sc2c1` (configuration not stated): the pIC50 was 7.96.

In the case of `CCC(NC(=O)Nc1nc2ccc(C(=O)Nc3c(C)cccc3Cl)cc2s1)c1ccccc1` (configuration not stated), the pIC50 was 7.72.

`Cc1cccc(Cl)c1NC(=O)c1ccc2nc(NC(=O)Nc3ncccn3)sc2c1` had a negative-log IC50 (pIC50) of under 5.51. Take `Cc1ccccc1CC(=O)Nc1nc2ccc(C(=O)Nc3c(C)cccc3Cl)cc2s1`: the pIC50 is 6.25. On the same count and under the same terms, the figure for `CC(=O)c1cccc(O)c1NC(=O)c1ccc2nc(NC(=O)OC(C)(C)C)sc2c1` is under 4.90. The same measure, in the same setting: the figure for `Cc1cccc(Cl)c1NC(=O)c1ccc2nc(NC(=O)NCCN(C)C)sc2c1` is 7.52.

As to `CCCCNC(=O)Nc1nc2ccc(C(=O)Nc3c(C)cc(C)cc3C)cc2s1`, the pIC50 is 6.48. As to `Cc1cc(C)c(NC(=O)c2ccc3nc(NC(=O)NCc4ccccc4)sc3c2)c(C)c1`, the pIC50 is 5.76.

As for `Cc1cccc(Cl)c1NC(=O)c1ccc2nc(NC(=O)Nc3ccccn3)sc2c1`, the pIC50 is 5.70. For the molecule `Cc1cc(C)c(NC(=O)c2sc(N)nc2C)c(C)c1`, the pIC50 was 5.49. For `Cc1cc(C)c(NC(=O)c2cc(C)c3nc(NC(=O)OC(C)(C)C)sc3c2)c(C)c1`, the pIC50 was 5.25.

Regarding `Cc1cccc(Cl)c1NC(=O)c1ccc2nc(NC(=O)NCCC3CCCN3C)sc2c1` (configuration not stated), the pIC50 was 8.15. Regarding `Cc1cc(C)c(NC(=O)c2ccc3nc(NC(=O)OC(C)(C)C)sc3c2)c(Br)c1`, the negative-log IC50 (pIC50) was 6.70. Still for that read-out and setting: the figure for `Cc1cc(C)c(NC(=O)c2ccc3[nH]c(NC(=O)OC(C)(C)C)nc3c2)c(C)c1` is 5.49; for `Cc1cccc(Cl)c1NC(=O)c1ccc2nc(NC(=O)OC(C)(C)C)sc2c1` it is 7.15. On to `Cc1cc(C)c(NC(=O)c2ccc3nc(NC(=O)OC(C)(C)C)oc3c2)c(C)c1`, for which the pIC50 was 5.14. As to `Cc1cccc(Cl)c1NC(=O)c1ccc2nc(NC(=O)NCc3ccc(F)cc3)sc2c1`, the pIC50 is 7.06. Molecule `Cc1cc(C)c(NC(=O)c2ccc3nc(NC(=O)c4ccccc4)sc3c2)c(C)c1` gave a negative-log IC50 (pIC50) of under 4.90. On the same count and under the same terms, next, `Cc1cc(C)c(NC(=O)c2sc(NC(=O)OC(C)(C)C)nc2C)c(C)c1`: 5.52; `CCC(C)(C)NC(=O)Nc1nc2ccc(C(=O)Nc3c(C)cccc3C)cc2s1`: 7.10.

In turn, `Cc1cc(C)c(NC(=O)c2ccc3nc(N)sc3c2)c(C)c1` had a pIC50 of 4.82.

Take `Cc1cccc(Cl)c1NC(=O)c1ccc2nc(NC(=O)NC3CCCC3)sc2c1`: the negative logarithm of the IC50 (pIC50) was 7.35. Molecule `Cc1cccc(C)c1NC(=O)c1ccc2nc(NC(=O)NC(C)(C)C)sc2c1` had a negative logarithm of the IC50 (pIC50) of 7.00. `Cc1cccc(Cl)c1NC(=O)c1ccc2nc(NC(=O)NC(C)(C)C)sc2c1` showed a pIC50 of 8.40. For the molecule `Cc1cccc(Br)c1NC(=O)c1ccc2nc(NC(=O)OC(C)(C)C)sc2c1`, the pIC50 was 5.37. Still for that read-out and setting: next, `Cc1cccc(Cl)c1NC(=O)c1ccc2nc(NC(=O)C3CCC3)sc2c1`: 6.18. Take `Cc1cc(Br)ccc1NC(=O)c1ccc2nc(NC(=O)OC(C)(C)C)sc2c1`: the negative-log IC50 (pIC50) is under 4.90. For `COc1cccc(OC)c1NC(=O)c1ccc2nc(NC(=O)OC(C)(C)C)sc2c1`, the negative-log IC50 (pIC50) was under 4.90. Take `Cc1cc(C)c(NC(=O)c2ccc3sc(NC(=O)OC(C)(C)C)nc3c2)c(C)c1`: the negative logarithm of the IC50 (pIC50) was under 4.90.

The molecule `Cc1cc(Br)cc(C)c1NC(=O)c1ccc2nc(NC(=O)OC(C)(C)C)sc2c1` gave a pIC50 of 6.96. Molecule `Cc1cccc(Cl)c1NC(=O)c1ccc2nc(NC(=O)C3CC3)sc2c1` had a pIC50 of 8.05.

Molecule `COC(=O)c1cc(C)c(NC(=O)c2ccc3nc(NC(=O)OC(C)(C)C)sc3c2)c(C)c1` had a pIC50 of 5.51.

In turn, `Cc1cccc(Cl)c1NC(=O)c1ccc2nc(NC(=O)Nc3ccc(F)cc3)sc2c1` showed a pIC50 of 6.91.

As for `Cc1cccc(C)c1NC(=O)c1ccc2nc(NC(=O)C3CC3)sc2c1`, the pIC50 was 7.82. On the same count and under the same terms, the figure for `Cc1cccc(Cl)c1NC(=O)c1ccc2nc(NC(=O)C3CCCO3)sc2c1` (configuration not stated) is 6.57; for `Cc1cc(C)c(NC(=O)c2ccc3nc(NC(=O)C4CC4)sc3c2)c(C)c1` it is 7.70; for `Cc1cc(C)c(NC(=O)c2ccc3nc(NC(=O)OC(C)(C)C)sc3c2)c(Br)c1C` it is under 4.90. Take `Cc1cc(C)c(NC(=O)c2ccc3[nH]c(N)nc3c2)c(C)c1`: the pIC50 was under 4.90. As to `Cc1cc(C)c(NC(=O)c2ccc3nc(N)sc3n2)c(C)c1`, the pIC50 is under 4.90. Take `Cc1ccc(C(C)C)c(C)c1NC(=O)c1ccc2nc(NC(=O)OC(C)(C)C)sc2c1`: the pIC50 was under 4.90. The same measure, in the same setting: the figure for `Cc1cccc(Cl)c1NC(=O)c1ccc2nc(NC(=O)NC3CC(C)(C)NC(C)(C)C3)sc2c1` is 8.40; for `Cc1cc(C)c(NC(=O)c2cccc3nc(NC(=O)OC(C)(C)C)sc23)c(C)c1` it is under 4.90; for `CCC(C)(C)NC(=O)Nc1nc2ccc(C(=O)Nc3c(C)cccc3Cl)cc2s1` it is 7.26. Molecule `Cc1cc(C)c(NC(=O)c2ccc3nc(NC(=O)OC(C)(C)C)sc3n2)c(C)c1` showed a pIC50 of under 4.90.

In the case of `Cc1cccc(CCO)c1NC(=O)c1ccc2nc(NC(=O)OC(C)(C)C)sc2c1`, the pIC50 is under 4.90. With `Cc1cc(C)c(NC(=O)c2ccc3nc(NC(=O)OC(C)(C)C)sc3c2Cl)c(C)c1`, the pIC50 was 5.36. Molecule `Cc1cccc(C)c1NC(=O)c1ccc2nc(NC(=O)NC3CC3)sc2c1` showed a pIC50 of 7.05. Molecule `Cc1cc(C)c(NC(=O)c2cc3sc(NC(=O)OC(C)(C)C)nc3cc2Cl)c(C)c1` showed a pIC50 of under 4.90.

As for `COc1cc(C(=O)Nc2c(C)cc(C)cc2C)nc2sc(NC(=O)OC(C)(C)C)nc12`, the pIC50 is under 4.90.
